Test results published in patent publication US10980889B1 (Revolution Medicines, Inc., priority 2018, dated 2021).

Experiments:
P-P70S6K (T389) = experiment: Cell based AlphaLISA assay, inhibition of P-P70S6K (T389) in MDA-MB-468 cells (mTORC1 substrate); conditions: Homo sapiens, 4 h, AlphaLisa, two to four hours at 37° C., read-out: pIC50 for Inhibition of mTORC1 and mTORC2 Substrate Phosphorylation p-P70S6K-(T389) (converted)
Summary of the method: (§1)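 In MDA-MB-468 cells, phosphorylation of 4EBP1 (Thr37/46), P70S6K (Thr389) and AKT (Ser473) was measured after incubation with inhibitor by AlphaLISA SureFire Ultra on cell lysates, in duplicate. IC50 values came from control-normalized concentration-response regression.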

P-4E-BP1 (T37/46) = experiment: Cell based AlphaLISA assay, inhibition of P-4E-BP1 (T37/46) in MDA-MB-468 cells (mTORC1 substrate); conditions: Homo sapiens, 4 h, AlphaLisa, two to four hours at 37° C., read-out: pIC50 for Inhibition of mTORC1 and mTORC2 Substrate Phosphorylation P-4E-BP1-(T37/46) (converted)
Summary of the method: as §1

P-Akt (S473) = experiment: Cell based AlphaLISA assay, inhibition of P-Akt (S473) in MDA-MB-468 cells (mTORC2 substrate); conditions: Homo sapiens, 4 h, AlphaLisa, two to four hours at 37° C., read-out: pIC50 for Inhibition of mTORC1 and mTORC2 Substrate Phosphorylation p-AKT1/2/3-(S473) (converted)
Summary of the method: as §1

Structure (SMILES) | IC50 (P-P70S6K (T389)) | IC50 (P-4E-BP1 (T37/46)) | IC50 (P-Akt (S473))
CO[C@H]1C[C@@H]2CC[C@@H](C)[C@@](O)(O2)C(=O)C(=O)N2CCCC[C@H]2C(=O)O[C@H]([C@H](C)C[C@@H]2CC[C@@H](OC(=O)NCc3cnc(N4CCN(C(=O)CCOCCN5CCN(C(=O)CCC(=O)NCCCCn6nc(-c7cnc8[nH]ccc8c7)c7c(N)ncnc76)CC5)CC4)nc3)[C@H](OC)C2)CC(=O)[C@H](C)/C=C(\C)[C@@H](O)[C@@H](OC)C(=O)[C@H](C)C[C@H](C)/C=C/C=C/C=C/1C [Example 116] | < 1 nM | < 3.16 nM | > 1000 nM
CO[C@H]1C[C@@H]2CC[C@@H](C)[C@@](O)(O2)C(=O)C(=O)N2CCCC[C@H]2C(=O)O[C@H]([C@H](C)C[C@@H]2CC[C@@H](OC(=O)N3CCc4nc(N5CCN(C(=O)CCOCCN6CCN(c7ncc(C(=O)N8CCc9cc(Cn%10nc(-c%11ccc%12oc(N)nc%12c%11)c%11c(N)ncnc%11%10)ccc9C8)cn7)CC6)CC5)ncc4C3)[C@H](OC)C2)C[C@@H](OC)[C@H](C)/C=C(\C)[C@@H](O)[C@@H](OC)C(=O)[C@H](C)C[C@H](C)/C=C/C=C/C=C/1C [Example 117] | < 1 nM | < 3.16 nM | 3.16 to 31.6 nM
CO[C@H]1C[C@@H]2CC[C@@H](C)[C@@](O)(O2)C(=O)C(=O)N2CCCC[C@H]2C(=O)O[C@H]([C@H](C)C[C@@H]2CC[C@@H](OC(=O)NCc3cnc(N4CCN(C(=O)CCOCCN5CCN(c6ncc(C(=O)N7CCc8cc(Cn9nc(-c%10ccc%11oc(N)nc%11c%10)c%10c(N)ncnc%109)ccc8C7)cn6)CC5)CC4)nc3)[C@H](OC)C2)CC[C@H](C)/C=C(\C)[C@@H](O)[C@@H](OC)C(=O)[C@H](C)C[C@H](C)/C=C/C=C/C=C/1C [Example 118] | < 1 nM | < 3.16 nM | 3.16 to 31.6 nM
CO[C@H]1C[C@@H]2CC[C@@H](C)[C@@](O)(O2)C(=O)C(=O)N2CCCC[C@H]2C(=O)O[C@H]([C@H](C)C[C@@H]2CC[C@@H](OC(=S)NCc3cnc(N4CCN(C(=O)CCOCCN5CCN(c6ncc(C(=O)N7CCc8cc(Cn9nc(-c%10ccc%11oc(N)nc%11c%10)c%10c(N)ncnc%109)ccc8C7)cn6)CC5)CC4)nc3)[C@H](OC)C2)CC(=O)[C@H](C)/C=C(\C)[C@@H](O)[C@@H](OC)C(=O)[C@H](C)C[C@H](C)/C=C/C=C/C=C/1C [Example 119] | < 1 nM | < 3.16 nM | 3.16 to 31.6 nM
CO[C@H]1C[C@@H]2CC[C@@H](C)[C@@](O)(O2)C(=O)C(=O)N2CCCC[C@H]2C(=O)O[C@H]([C@H](C)C[C@@H]2CC[C@@H](OC(=S)NCc3cnc(N4CCN(C(=O)CCOCCN5CCN(c6ncc(C(=O)N7CCc8cc(Cn9nc(-c%10ccc%11oc(N)nc%11c%10)c%10c(N)ncnc%109)ccc8C7)cn6)CC5)CC4)nc3)[C@H](OC)C2)C[C@@H](OC)[C@H](C)/C=C(\C)[C@@H](O)[C@@H](OC)C(=O)[C@H](C)C[C@H](C)/C=C/C=C/C=C/1C [Example 121] | < 1 nM | < 3.16 nM | > 1000 nM
CO[C@H]1C[C@@H]2CC[C@@H](C)[C@@](O)(O2)C(=O)C(=O)N2CCCC[C@H]2C(=O)O[C@H]([C@H](C)C[C@@H]2CC[C@@H](OC(=O)NCc3cnc(N4CCN(C(=O)CCOCCN5CCN(c6ncc(C(=O)NCCS(=O)(=O)c7ccc(C(=O)N8CCOc9ccc(-c%10ccc(N)nc%10)cc9C8)c(C)c7F)cn6)CC5)CC4)nc3)[C@H](OC)C2)C[C@@H](O)[C@H](C)/C=C(\C)[C@@H](O)[C@@H](OC)C(=O)[C@H](C)C[C@H](C)/C=C/C=C/C=C/1C [Example 122] | < 1 nM | < 3.16 nM | 3.16 to 31.6 nM
CO[C@H]1C[C@@H]2CC[C@@H](C)[C@@](O)(O2)C(=O)C(=O)N2CCCC[C@H]2C(=O)O[C@H]([C@H](C)C[C@@H]2CC[C@@H](OC(=O)NCc3cnc(N4CCN(C(=O)CCOCCN5CCN(c6ncc(C(=O)NCCS(=O)(=O)c7ccc(C(=O)N8CCOc9ccc(-c%10ccc(N)nc%10)cc9C8)c(C)c7F)cn6)CC5)CC4)nc3)[C@H](OC)C2)C[C@@H](OC)[C@H](C)/C=C(\C)[C@@H](O)[C@@H](OC)C(=O)[C@H](C)C[C@H](C)/C=C/C=C/C=C/1C [Example 123] | < 1 nM | < 3.16 nM | 31.6 to 1000 nM
CO[C@H]1C[C@@H]2CC[C@@H](C)[C@@](O)(O2)C(=O)C(=O)N2CCCC[C@H]2C(=O)O[C@H]([C@H](C)C[C@@H]2CC[C@@H](OC(=O)NCc3cnc(N4CCN(C(=O)CCOCCN5CCN(c6ncc(C(=O)NCCS(=O)(=O)c7ccc(C(=O)N8CCOc9ccc(-c%10ccc(N)nc%10)cc9C8)c(C)c7)cn6)CC5)CC4)nc3)[C@H](OC)C2)CC(=O)[C@H](C)/C=C(\C)[C@@H](O)[C@@H](OC)C(=O)[C@H](C)C[C@H](C)/C=C/C=C/C=C/1C [Example 124] | < 1 nM | < 3.16 nM | 3.16 to 31.6 nM
CO[C@H]1C[C@@H]2CC[C@@H](C)[C@@](O)(O2)C(=O)C(=O)N2CCCC[C@H]2C(=O)O[C@H]([C@H](C)C[C@@H]2CC[C@@H](OC(=O)NCc3cnc(N4CCN(C(=O)CCOCCN5CCN(c6ncc(C(=O)NCCS(=O)(=O)c7ccc(C(=O)N8CCOc9ccc(-c%10ccc(N)nc%10)cc9C8)c(C)c7)cn6)CC5)CC4)nc3)[C@H](OC)C2)C[C@@H](O)[C@H](C)/C=C(\C)[C@@H](O)[C@@H](OC)C(=O)[C@H](C)C[C@H](C)/C=C/C=C/C=C/1C [Example 125] | < 1 nM | < 3.16 nM | 3.16 to 31.6 nM
CO[C@H]1C[C@@H]2CC[C@@H](C)[C@@](O)(O2)C(=O)C(=O)N2CCCC[C@H]2C(=O)O[C@H]([C@H](C)C[C@@H]2CC[C@@H](OC(=O)NCc3cnc(N4CCN(C(=O)CCOCCOCCN5CCN(c6ncc(C(=O)N7CCc8cc(Cn9nc(-c%10ccc%11[nH]ccc%11c%10)c%10c(N)ncnc%109)ccc8C7)cn6)CC5)CC4)nc3)[C@H](OC)C2)CC(=O)[C@H](C)/C=C(\C)[C@@H](O)[C@@H](OC)C(=O)[C@H](C)C[C@H](C)/C=C/C=C/C=C/1C [Example 126] | < 1 nM | 3.16 to 31.6 nM | > 1000 nM
CO[C@H]1C[C@@H]2CC[C@@H](C)[C@@](O)(O2)C(=O)C(=O)N2CCCC[C@H]2C(=O)O[C@H]([C@H](C)C[C@@H]2CC[C@@H](OC(=O)N3CCc4nc(N5CCN(C(=O)CCOCCN6CCN(c7ncc(C(=O)N8CCc9cc(Cn%10nc(-c%11ccc%12[nH]ccc%12c%11)c%11c(N)ncnc%11%10)ccc9C8)cn7)CC6)CC5)ncc4C3)[C@H](OC)C2)CC(=O)[C@H](C)/C=C(\C)[C@@H](O)[C@@H](OC)C(=O)[C@H](C)C[C@H](C)/C=C/C=C/C=C/1C [Example 127] | < 1 nM | 3.16 to 31.6 nM | > 1000 nM
CO[C@H]1C[C@@H]2CC[C@@H](C)[C@@](O)(O2)C(=O)C(=O)N2CCCC[C@H]2C(=O)O[C@H]([C@H](C)C[C@@H]2CC[C@@H](OC(=O)NCc3cnc(N4CCN(CCOCCN5CCN(c6ncc(C(=O)N7CCc8cc(Cn9nc(-c%10ccc%11oc(N)nc%11c%10)c%10c(N)ncnc%109)ccc8C7)cn6)CC5)CC4)nc3)[C@H](OC)C2)C[C@@H](OC)[C@H](C)/C=C(\C)[C@@H](O)[C@@H](OC)C(=O)[C@H](C)C[C@H](C)/C=C/C=C/C=C/1C [Example 128] | < 1 nM | 3.16 to 31.6 nM | 31.6 to 1000 nM
